According to PMC4129108, “The natural triterpene 3β,6β,16β-trihydroxy-lup-20(29)-ene obtained from the flowers of Combretum leprosum induces apoptosis in MCF-7 breast cancer cells” (BMC Complementary and Alternative Medicine, 2014):
Converted amounts (≈) assume the structure as drawn.

Key:
[1] = system: MCF-7 (breast adenocarcinoma); experiment: XTT cell viability assay, MCF-7; type: cell-based, human; settings: for IC50: XTT
Protocol: The human cell lines MCF-7 (breast adenocarcinoma), HepG2 (hepatoma), T24 (bladder cancer), CACO-2 (colorectal adenocarcinoma) and MRC5 (lung normal fibroblast) were obtained from the Rio de Janeiro Cell Bank (Rio de Janeiro, RJ, Brazil). The HCT116 cell (colorectal carcinoma), and HT29 cell (colorectal adenocarcinoma) were kindly provided by Dr. Annette K. Larsen (Institut National de la Santé et de la Recherche Médicale - INSERM, Paris, França). All cell lines except MCF-7 were grown in DMEM supplemented with 10% or 20% (for CACO-2) FBS, 100 units.mL^-1 penicillin and 100 μg.mL^-1 streptomycin at 37°C in a humidified atmosphere of 5% CO2. MCF-7 cells were maintained in RPMI-1640 supplemented with 20% FBS at the same conditions described above.
The cytotoxic potential of the TTHL was evaluated by the XTT assay in human tumor cell lines as well as in MRC5 normal fibroblasts. Cells (1 × 10^4 cells) were seeded on 96-well plates in growth medium and incubated overnight. Afterwards, TTHL (0.5, 1.0, 2.5, 5.0, and 10 μg/mL) was added to each well and incubated for 24, 48, 72, and 120 h. Mitoxantrone, a cytostatic anthracenedione that intercalates in DNA and increases the incidence of double-strand breaks by stabilizing the cleavable complex of topoisomerase II and DNA, was used as positive control. At the end of each treatment, cell viability was assessed according to the manufacturer’s instructions. Briefly, after discarding the medium, 1 mL of XTT labeling mixture was added to the cells and incubated for 2 h at 37°C. Absorbance was measured with a SpectraMax reader (Bio-Rad, USA) at a test wavelength of 492 nm (A492) and a reference wavelength of 690 nm (A690). The final result corresponds to A492-A690. The absorbance of negative control cells was set as 100% viability, and the values for treated cells were calculated as a percentage of the control.
The IC20, IC50, and IC80 values and their 95% confidence intervals (CI 95%) were obtained by nonlinear regression using GraphPad Prism v5 program (Intuitive Software for Science, San Diego, CA, USA). Selective index (SI) was calculated by IC50 in MRC5 cells/IC50 in tumoral cells. All experiments were independently repeated at least three times, with triplicate samples for each treatment. Results are expressed as means ± standard deviation (SD). Data were analyzed by one-way analysis of variance (ANOVA), and means were compared using Tukey test, with P ≤ 0.05 considered as statistically significant.

[2] = system: S. cerevisiae EG103 (SOD-WT); experiment: Yeast survival assay, EG103 (SOD-WT); type: cell-based, Saccharomyces cerevisiae; settings: STAT cells, 1 h in PBS 30°C
Protocol: Media, solutions and buffers were prepared according to Burke et al.. YPD medium (0.5% yeast extract, 2% peptone, 2% glucose) was used for routine growth. Synthetic medium SC (0.67% yeast nitrogen base, 0.1% ammonium sulfate, 2% glucose) supplemented with the appropriate amino acids and bases ([…]) was used for the detection of mutations.
Stationary phase (STAT) cultures were obtained by inoculation of a single colony into liquid YPD. We chose to work in the stationary phase of growth because this resembles most cells of multicellular organisms in important aspects: (i) most energy comes from mitochondrial respiration; (ii) the cells have left the active cell cycle and have entered the Go phase; and (iii) damage accumulates over time.
STAT cells (1 × 10^8 cells/mL) were exposed to TTHL (10–500 μg/mL) and incubated under growth conditions for 1 h in PBS at 30°C. Cells were then washed and treated with H2O2 (5 mM) in PBS for another hour. Suitable aliquots were plated in triplicate on solid YPD (2–3 days, 30°C) and colony-forming units were counted. Sensitivity was expressed as a percentage of survival in relation to the negative control (solvent).

[3] = system: MCF-7 cells; experiment: Alkaline comet assay; type: cell-based, human; settings: MCF-7, 24 h
Protocol: Cells (2 × 10^5 cells/mL) were seeded on 6-well tissue culture plates, and grown for 1 day up to 70–80% confluence before treatment with the test substance. The TTHL was added to medium with FBS to obtain the different concentrations, and cells were treated at 37°C for 24 h in humidified atmosphere containing 5% CO2.
The alkaline comet assay was performed as previously described. Briefly, 10 μL of cell suspension (1 × 10^4 cells) treated with TTHL were mixed with 90 μL LMP agarose, spread on a normal agarose precoated microscope slide, and placed at 4°C for 5 min to allow for solidification. Cells were lysed in high concentration of salt and detergent (2.5 M NaCl, 100 mM Na2EDTA, 10 mM Tris with 1% Triton X-100 and 10% DMSO freshly added) for 2 h. Slides were removed from lysing solution and washed three times with PBS. Subsequently, cells were exposed to alkali conditions (300 mM NaOH/1 mM Na2EDTA, pH >13, 30 min, 4°C) to allow DNA unwinding and expression of alkali-labile sites. Electrophoresis was conducted for 25 min at 25 V and 300 mA ([…]). After electrophoresis, the slides were neutralized and silver stained. One hundred cells were scored visually according to the tail length and the amount of DNA present in the tail. Each comet was given an arbitrary value of 0–4 (0, undamaged; 4, maximally damaged), as described by Collins et al.. Damage score was thus assigned to each sample and can range from 0 (completely undamaged: 100 cells × 0) to 400 (with maximum damage: 100 cells × 4). International guidelines and recommendations for the comet assay consider that visual scoring of comets is a well-validated evaluation method, as it is highly correlated with computer-based image analysis.

C=C(C)[C@@H]1CC[C@@]2(C)[C@H]1[C@H]1CC[C@@H]3[C@@]4(C)CC[C@H](O)C(C)(C)[C@@H]4[C@H](O)C[C@@]3(C)[C@]1(C)C[C@@H]2O [TTHL, 3β,6β,16β-trihydroxy-lup-20(29)-ene]
IC20 ([1]; Homo sapiens, MCF7, MCF-7, 24 h, determined by XTT assay, read-out: IC20 (20% inhibitory concentration)): 0.5 µg/mL (≈ 1.09 µM)
IC80 ([1]; Homo sapiens, MCF7, MCF-7, 24 h, determined by XTT assay, read-out: IC80 (80% inhibitory concentration)): 3.7 µg/mL (≈ 8.07 µM)
IC50 ([1]; Homo sapiens, MCF7, MCF-7, 24 h treatment): 1.36 ± 0.05 µg/mL (≈ 2.96 µM)
IC50 ([1]; Homo sapiens, MCF7, MCF-7, 48 h treatment): 0.73 ± 0.05 µg/mL (≈ 1.59 µM)
IC50 ([1]; Homo sapiens, MCF7, MCF-7, 72 h treatment): 0.63 ± 0.04 µg/mL (≈ 1.37 µM)
IC50 ([1]; Homo sapiens, MCF7, MCF-7, 120 h treatment): 0.3 ± 0.04 µg/mL (≈ 0.654 µM)
Selectivity index (SI) ([1]; IC50 in MRC5 cells/IC50 in MCF-7, 48 h): 10 X
Selectivity index (SI) ([1]; IC50 in MRC5 cells/IC50 in MCF-7, 72 h): 12 X
Selectivity index (SI) ([1]; IC50 in MRC5 cells/IC50 in MCF-7, 120 h): 23 X
survival (percentage in relation to negative control) ([2]; TTHL 10 μg/mL): 100 ± 2.83%
survival (percentage in relation to negative control) ([2]; TTHL 50 μg/mL): 87.65 ± 5.16 %
survival (percentage in relation to negative control) ([2]; TTHL 100 μg/mL): 79.45 ± 1.91 %
survival (percentage in relation to negative control) ([2]; TTHL 500 μg/mL): 67.65 ± 3.04 %
DNA damage (alkaline comet assay) ([3]; TTHL at IC20): does not generate DNA-strand breaks
DNA damage (alkaline comet assay) ([3]; TTHL at IC50): induces signifcant DNA damage
DNA damage (alkaline comet assay) ([3]; TTHL at IC80): induces signifcant DNA damage
